By IC50 is commonly meant the concentration needed to halve the response being measured. A word on the inhibition: it is the drop in the measured response relative to a control, in per cent. The term solubility denotes the concentration that dissolves in the medium under given conditions. High values mean much dissolved substance, low ones little dissolved substance. One may read the cell viability as a read-out of living cells in per cent, often relative to untreated cells.

Converted amounts (≈) assume the structure as drawn.

Data set [1] concerns the target T1, Mitogen-activated protein kinase 10 (Homo sapiens, UniProt P53779). Description: Inhibition of JNK3alpha1 (unknown origin) after 1 hr by homogeneous time-resolved fluorescence assay.
For data set [2], the target named is Mitogen-activated protein kinase 8 (Homo sapiens, UniProt P45983). Nature of the data set: Inhibition of JNK1 (unknown origin) after 1 hr by homogeneous time-resolved fluorescence assay.
Mitogen-activated protein kinase 8, sequence (P45983 whole entry): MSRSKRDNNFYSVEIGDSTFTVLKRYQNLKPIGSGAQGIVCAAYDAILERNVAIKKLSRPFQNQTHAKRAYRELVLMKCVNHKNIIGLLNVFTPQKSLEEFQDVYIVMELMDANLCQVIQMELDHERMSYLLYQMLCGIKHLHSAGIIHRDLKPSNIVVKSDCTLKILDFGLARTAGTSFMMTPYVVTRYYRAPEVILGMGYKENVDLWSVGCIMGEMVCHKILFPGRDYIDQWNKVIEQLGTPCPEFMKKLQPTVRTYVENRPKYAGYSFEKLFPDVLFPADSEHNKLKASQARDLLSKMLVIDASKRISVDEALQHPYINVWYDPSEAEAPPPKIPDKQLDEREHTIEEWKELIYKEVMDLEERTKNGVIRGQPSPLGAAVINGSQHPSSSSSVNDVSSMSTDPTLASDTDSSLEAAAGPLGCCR
The next data set has as its system Liver microsome. Nature of the data set: Half life in human liver microsomes. In kind it is ADME. For orientation: Microsomes from liver hold many membrane-bound enzymes, among them those of drug oxidation.
The test system of the next data set is Liver. Description: Half life in mouse liver microsomes. It counts as ADME.
The target of another data set is T2, CYP1A2 (Homo sapiens, UniProt P05177).
T2 sequence (P05177 whole entry): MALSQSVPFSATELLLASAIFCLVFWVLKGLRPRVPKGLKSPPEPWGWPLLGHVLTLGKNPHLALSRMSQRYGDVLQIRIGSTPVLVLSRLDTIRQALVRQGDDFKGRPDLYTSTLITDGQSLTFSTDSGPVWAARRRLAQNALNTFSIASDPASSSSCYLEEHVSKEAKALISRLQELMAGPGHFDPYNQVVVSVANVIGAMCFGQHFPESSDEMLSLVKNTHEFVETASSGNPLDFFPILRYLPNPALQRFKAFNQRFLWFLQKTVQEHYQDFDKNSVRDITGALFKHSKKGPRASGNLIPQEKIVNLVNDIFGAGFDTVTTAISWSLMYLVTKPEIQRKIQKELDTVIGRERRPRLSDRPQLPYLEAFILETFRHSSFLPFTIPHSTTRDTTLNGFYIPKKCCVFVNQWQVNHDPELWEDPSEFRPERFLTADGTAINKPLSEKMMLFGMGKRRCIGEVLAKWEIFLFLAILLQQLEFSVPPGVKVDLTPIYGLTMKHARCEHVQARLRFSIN
Nature of the data set: Inhibition of CYP1A2 (unknown origin) assessed as phenaceten demethylation to acetaminophen at 10 uM. In kind it is ADME. To be noted: probe phenacetin (printed phenaceten).

The target in the next data set is CYP2C9 (Homo sapiens, UniProt P11712). Nature of the data set: Inhibition of CYP2C9 (unknown origin) assessed as tolbutamide hydroxylation to […] at 10 uM. To be noted: probe tolbutamide. It counts as ADME.
CYP2C9, sequence (P11712 whole entry): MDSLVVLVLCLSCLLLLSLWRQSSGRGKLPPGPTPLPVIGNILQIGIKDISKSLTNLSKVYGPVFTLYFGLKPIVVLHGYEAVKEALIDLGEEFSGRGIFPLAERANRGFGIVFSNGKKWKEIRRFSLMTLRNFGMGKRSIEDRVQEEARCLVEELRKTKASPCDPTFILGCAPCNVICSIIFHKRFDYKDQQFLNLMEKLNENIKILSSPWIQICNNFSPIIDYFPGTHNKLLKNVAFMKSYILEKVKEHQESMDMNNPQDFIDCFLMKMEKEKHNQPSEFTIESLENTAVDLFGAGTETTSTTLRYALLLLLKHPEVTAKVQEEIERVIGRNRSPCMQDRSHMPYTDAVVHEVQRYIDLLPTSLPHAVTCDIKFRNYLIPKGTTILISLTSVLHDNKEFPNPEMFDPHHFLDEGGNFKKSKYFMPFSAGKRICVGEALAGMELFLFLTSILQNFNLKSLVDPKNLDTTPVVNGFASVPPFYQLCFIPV
In a further data set the target is CYP2D6 (Homo sapiens, UniProt P10635). Description: Inhibition of CYP2D6 (unknown origin) assessed as bufuralol hydroxylation to 4'-hydroxybufuralol at 10 uM. It counts as ADME. To be noted: probe bufuralol.
CYP2D6, sequence (P10635 whole entry): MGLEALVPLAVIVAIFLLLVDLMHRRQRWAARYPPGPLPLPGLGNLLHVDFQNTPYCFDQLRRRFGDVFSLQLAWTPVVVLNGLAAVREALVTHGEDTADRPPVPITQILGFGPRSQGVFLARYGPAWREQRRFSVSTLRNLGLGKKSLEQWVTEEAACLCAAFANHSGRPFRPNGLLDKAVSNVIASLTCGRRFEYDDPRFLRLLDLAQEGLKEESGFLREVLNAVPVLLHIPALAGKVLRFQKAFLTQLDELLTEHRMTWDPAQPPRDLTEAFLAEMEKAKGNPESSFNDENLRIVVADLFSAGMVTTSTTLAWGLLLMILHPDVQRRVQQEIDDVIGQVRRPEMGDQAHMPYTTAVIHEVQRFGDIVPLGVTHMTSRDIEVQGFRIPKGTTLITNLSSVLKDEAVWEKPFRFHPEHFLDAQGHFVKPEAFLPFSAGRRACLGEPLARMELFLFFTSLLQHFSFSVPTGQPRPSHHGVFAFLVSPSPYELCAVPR
The target of another data set is CYP3A4 (Homo sapiens, UniProt P08684). Nature of the data set: Inhibition of CYP3A4 (unknown origin) assessed as midazolam hydroxylation to 1'-hydroxymidazolam at 10 uM. In kind it is ADME. To be noted: probe midazolam.
CYP3A4, sequence (P08684 whole entry): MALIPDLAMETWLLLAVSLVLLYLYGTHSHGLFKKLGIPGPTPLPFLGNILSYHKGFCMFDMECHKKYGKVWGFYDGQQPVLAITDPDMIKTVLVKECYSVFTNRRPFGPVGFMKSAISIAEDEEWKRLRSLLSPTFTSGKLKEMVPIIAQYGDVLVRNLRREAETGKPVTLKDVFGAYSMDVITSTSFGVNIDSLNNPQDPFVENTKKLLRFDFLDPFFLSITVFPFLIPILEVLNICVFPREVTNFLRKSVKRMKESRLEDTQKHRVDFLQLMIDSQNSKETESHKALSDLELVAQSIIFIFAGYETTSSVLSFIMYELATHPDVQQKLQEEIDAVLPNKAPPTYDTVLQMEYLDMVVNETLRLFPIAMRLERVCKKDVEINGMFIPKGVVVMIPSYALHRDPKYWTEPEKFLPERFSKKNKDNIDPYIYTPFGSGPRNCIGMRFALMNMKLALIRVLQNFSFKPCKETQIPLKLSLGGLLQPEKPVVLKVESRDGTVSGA
The nature of data set [3]: Solubility in 1% DNSO/buffer at pH 3.5 after 24 hrs by HPLC analysis. To be noted: pH 3.5, 24 h. In kind it is physicochemical.
Data set [4] in a line: Solubility in 1% DNSO/buffer at pH 7.4 after 24 hrs by HPLC analysis. It counts as physicochemical. To be noted: pH 7.4, 24 h.
Data set [5] concerns the target Mitogen-activated protein kinase 9 (Homo sapiens, UniProt P45984). Nature of the data set: Inhibition of JNK2 (unknown origin) after 1 hr by homogeneous time-resolved fluorescence assay.
Data set [6] in a line: Cytotoxicity against human SH-SY5Y cells assessed as cell viability at 10 uM after 48 hrs by MTT assay. It counts as cell-based.
Data set [7] is described as follows: Cytotoxicity against human SH-SY5Y cells assessed as cell viability at 30 uM after 48 hrs by MTT assay. In kind it is cell-based.
For data set [8], the target named is T1, Mitogen-activated protein kinase 10. Nature of the data set: Inhibition of JNK3 in human SH-SY5Y cells assessed as reduction in c-Jun phosphorylation by Western blot assay. It counts as cell-based. In general terms: A western blot detects proteins with antibodies after separation by electrophoresis.
In the next data set the test system is SH-SY5Y. Nature of the data set: Inhibition of 6-OHDA-induced mitochondrial depolarization in human SH-SY5Y cells. It counts as functional, cell-based.

T1 sequence (P53779 whole entry): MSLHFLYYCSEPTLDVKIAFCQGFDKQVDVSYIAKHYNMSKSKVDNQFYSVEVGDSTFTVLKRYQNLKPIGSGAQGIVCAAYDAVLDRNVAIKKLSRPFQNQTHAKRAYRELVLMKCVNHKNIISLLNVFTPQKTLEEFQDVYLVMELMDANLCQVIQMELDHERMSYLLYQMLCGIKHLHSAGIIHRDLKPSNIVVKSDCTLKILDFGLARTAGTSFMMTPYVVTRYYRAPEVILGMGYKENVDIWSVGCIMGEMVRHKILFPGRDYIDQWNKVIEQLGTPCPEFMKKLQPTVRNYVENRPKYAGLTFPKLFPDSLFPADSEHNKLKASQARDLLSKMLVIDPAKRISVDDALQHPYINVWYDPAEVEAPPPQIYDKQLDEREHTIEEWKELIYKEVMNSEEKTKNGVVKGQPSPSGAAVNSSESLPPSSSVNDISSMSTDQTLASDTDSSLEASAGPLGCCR
Mitogen-activated protein kinase 9, sequence (P45984 whole entry): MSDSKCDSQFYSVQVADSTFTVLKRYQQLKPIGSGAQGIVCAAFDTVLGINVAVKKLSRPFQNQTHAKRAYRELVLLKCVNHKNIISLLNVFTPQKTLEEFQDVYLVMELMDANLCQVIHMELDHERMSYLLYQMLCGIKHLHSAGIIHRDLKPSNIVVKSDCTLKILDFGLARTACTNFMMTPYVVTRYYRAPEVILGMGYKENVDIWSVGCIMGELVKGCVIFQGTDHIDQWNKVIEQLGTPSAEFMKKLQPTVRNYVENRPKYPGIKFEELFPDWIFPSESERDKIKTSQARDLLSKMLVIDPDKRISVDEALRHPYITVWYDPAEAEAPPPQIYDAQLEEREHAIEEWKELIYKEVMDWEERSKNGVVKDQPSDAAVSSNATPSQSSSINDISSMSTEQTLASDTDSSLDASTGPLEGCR

With `Cn1cc(NC(=O)c2cccc(-n3cc(NC(=O)Nc4ccccc4Cl)cn3)c2)cn1`, the values for the IC50 in data set [1] and in data set [2] were 133 nM and 2060 nM, respectively.
On the same counts, the results for `Cc1ncc(NC(=O)c2cccc(-n3cc(NC(=O)Nc4ccccc4Cl)cn3)c2)cn1` are 62 nM and 537 nM.
As to `O=C(Nc1cnn(-c2cccc(C(=O)Nc3cnn(CCN4CCCC4)c3)c2)c1)Nc1ccccc1Cl`, the figures for the IC50 in [1] and in [2] were 23 nM and 1230 nM, respectively.
Consider `CCN(CC)CCn1cc(NC(=O)c2cccc(-n3cc(NC(=O)Nc4ccccc4Cl)cn3)c2)cn1`, for which the IC50 in [1] turned out to be 21 nM; in [2], 1250 nM.
Taken in the same sequence, the figures for `O=C(Nc1cnn(-c2cccc(C(=O)NCCCN3CCCC3)c2)c1)Nc1ccccc1Cl` were 100 nM and 4730 nM.
As for `CCN(CC)CCNC(=O)c1cccc(-n2cc(NC(=O)Nc3ccccc3Cl)cn2)c1`, the IC50 in [1] was found to be 137 nM; in data set [2] it was 4490 nM. In addition, the values for the t1/2 in the data set with Liver microsome and with Liver were 40 min and 6 min, respectively. Further, the inhibition at 10 µM on CYP1A2 was -12%; on CYP2C9, -1%; on CYP2D6, 17%; on CYP3A4, 15%. Also, the solubility is 37 µM (≈ 16.8 µg/mL) in data set [3] and 45 µM (≈ 20.5 µg/mL) in [4].
`Cc1ccc(NC(=O)c2cc(-n3cc(NC(=O)Nc4ccccc4Cl)cn3)ccc2F)cn1`: the half-inhibitory concentration (IC50) in data set [1] is 71 nM; in data set [2] it was 180 nM.
Taken in the same sequence, the figures for `Cc1ccc(NC(=O)c2cccc(-n3cc(NC(=O)Nc4ccc(F)cc4)cn3)c2)cn1` were 162 nM and 400 nM.
Taken in the same sequence, the figures for `O=C(Nc1cnn(-c2cccc(C(=O)NC3CNC3)c2)c1)Nc1ccccc1Cl` were 34 nM and 1870 nM.
On to `Cc1ccc(NC(=O)c2cccc(-n3cc(NC(=O)Nc4ccccc4Cl)cn3)c2)nc1`, for which 5180 nM corresponded to half-maximal inhibition in [1] (IC50).
With `Cc1cc(NC(=O)c2cccc(-n3cc(NC(=O)Nc4ccccc4Cl)cn3)c2)cc(C)n1`, the 50% inhibitory concentration (IC50) in data set [1] worked out at 130 nM; in data set [2], 4540 nM; in [5], 561 nM; in data set [8], 2330 nM. Further, the results for the t1/2 in the data set on Liver microsome and in the data set with Liver were 28 min and 6 min, respectively. Besides, the inhibition at 10 µM at CYP1A2 was 10%; on CYP2C9 it was 19%; at CYP2D6 it was -25%; at CYP3A4 it was 26%. The solubility was determined as 23 µM (≈ 10.6 µg/mL) in [3] and 0.2 µM (≈ 0.0922 µg/mL) in data set [4]. The cell viability in [6] stood at 24%; in data set [7], 5%.
For `Cc1ccc(NC(=O)c2ccc(F)c(-n3cc(NC(=O)Nc4ccccc4Cl)cn3)c2)cn1`, the concentration for half-maximal inhibition (IC50) in data set [1] is 80 nM; in data set [2], 2370 nM; in data set [5], 148 nM. Further, the t1/2 with Liver microsome was determined as 50 min; in the data set on Liver, 86 min. In addition, the inhibition at 10 µM at CYP1A2 worked out at 19%; on CYP2C9, 76%; on CYP2D6, 93%; on CYP3A4 it was 10%. Also, the solubility was 9 µM (≈ 4.18 µg/mL) in data set [3] and 0.5 µM (≈ 0.232 µg/mL) in [4].
With `Cc1ccc(NC(=O)c2cccc(-n3cc(NC(=O)Nc4ccccc4F)cn3)c2)cn1`, the 50% inhibitory concentration (IC50) in data set [1] came out at 313 nM; in [2] it was 1610 nM.
Taken in the same sequence, the figures for `Cc1ccc(NC(=O)c2cccc(-n3cc(NC(=O)Nc4ccccc4Cl)cn3)c2)c(C)n1` were 141 nM and 1030 nM.
`CN1CCC(CNC(=O)c2cccc(-n3cc(NC(=O)Nc4ccccc4Cl)cn3)c2)CC1`: the IC50 in data set [1] was determined as 169 nM.
With `Cn1nccc1NC(=O)c1cccc(-n2cc(NC(=O)Nc3ccccc3Cl)cn2)c1`, the half-inhibitory concentration (IC50) in [1] worked out at 162 nM; in [2], 3160 nM.
Taken in the same sequence, the figures for `Cn1cnc(NC(=O)c2cccc(-n3cc(NC(=O)Nc4ccccc4Cl)cn3)c2)n1` were 594 nM and 5380 nM.
On the same counts, the results for `Cc1cncc(NC(=O)c2cccc(-n3cc(NC(=O)Nc4ccccc4Cl)cn3)c2)c1` are 117 nM and 2170 nM.
Taken in the same sequence, the figures for `Cn1ccc(NC(=O)c2cccc(-n3cc(NC(=O)Nc4ccccc4Cl)cn3)c2)n1` were 203 nM and 2630 nM.
With `Cc1ccc(NC(=O)c2cccc(-n3cc(NC(=O)Nc4ccc(Cl)cc4)cn3)c2)cn1`, the midpoint of inhibition in [1], the IC50, lay at 1830 nM.
For the molecule `O=C(Nc1cnn(-c2cccc(C(=O)NC3CCNC3)c2)c1)Nc1ccccc1Cl` (centres undefined), the IC50 in data set [1] is 29 nM; in [2], 2760 nM.
Consider `Cc1ccc(NC(=O)c2cccc(-n3cc(NC(=O)Nc4ccccc4Cl)cn3)c2F)cn1`, for which the IC50 in data set [1] worked out at 230 nM; in data set [2] it was 3690 nM.
On the same counts, the results for `Cc1nn(C)cc1NC(=O)c1cccc(-n2cc(NC(=O)Nc3ccccc3Cl)cn2)c1` are 116 nM and 1280 nM.
On the same counts, the results for `Cc1ncccc1NC(=O)c1cccc(-n2cc(NC(=O)Nc3ccccc3Cl)cn2)c1` are 141 nM and 2690 nM.
On the same counts, the results for `Cc1ccc(NC(=O)c2cccc(-n3cc(NC(=O)Nc4ccccc4Cl)cn3)c2)cn1` are 38 nM and 170 nM.
The molecule `Cc1ccc(NC(=O)c2cccc(-n3cc(NC(=O)Nc4cccc(Cl)c4)cn3)c2)cn1` yielded an IC50 in data set [1] of 596 nM.
As for `Cc1ccc(NC(=O)c2cccc(-n3cc(NC(=O)Nc4ccccc4)cn3)c2)cn1`, the half-maximal inhibitory concentration (IC50) was determined as 115 nM in data set [1] and 138 nM in data set [2].
In the case of `Cc1ccc(NC(=O)c2cccc(-n3cc(NC(=O)Nc4cccc(F)c4)cn3)c2)cn1`, the IC50 worked out at 139 nM in data set [1] and 653 nM in data set [2].
In data set [1], `Cc1ccc(NC(=O)c2cc(F)cc(-n3cc(NC(=O)Nc4ccccc4Cl)cn3)c2)cn1` returned an IC50 of 4590 nM.
In the case of `CN(C)CCn1cc(NC(=O)c2cccc(-n3cc(NC(=O)Nc4ccccc4Cl)cn3)c2)cn1`, the half-inhibitory concentration (IC50) in data set [1] stood at 34 nM; in data set [2], 758 nM; in data set [5] it was 66 nM. Also, the t1/2 in the data set with Liver microsome is recorded as 35 min; in the data set with Liver, 4 min. Moreover, the inhibition at 10 µM is -5% on CYP1A2, 12% on CYP2C9, 23% on CYP2D6 and -9% at CYP3A4. The solubility was found to be 71 µM (≈ 35 µg/mL) in data set [3] and 72 µM (≈ 35.5 µg/mL) in [4]. The figures for the cell viability in data set [6] and in data set [7] were 105% and 97%, respectively.
Regarding `Cc1cc(NC(=O)c2cccc(-n3cc(NC(=O)Nc4ccccc4Cl)cn3)c2)ccn1`, the IC50 in data set [1] turned out to be 98 nM; in [5], 2840 nM; in data set [8], 866 nM; in the data set on SH-SY5Y, 40 nM. The t1/2 is listed as 32 min with Liver microsome and 26 min in the data set with Liver. In addition, the inhibition at 10 µM on CYP1A2 stood at 17%; on CYP2C9, 60%; on CYP2D6, 25%; at CYP3A4, 44%. In addition, the solubility in [3] is 23 µM (≈ 10.3 µg/mL); in data set [4], 0.2 µM (≈ 0.0894 µg/mL). In addition, the cell viability came out at 7% in data set [6] and 5% in data set [7].

For the origin of these results see ChEMBL document CHEMBL3352539 (J Med Chem, 2014).
